Measurements reported in ChEMBL document CHEMBL2331232, “Α-mangostin and gambogic acid as potential inhibitors of the p53-MDM2 interaction revealed by a yeast approach” (J Nat Prod, 2013).
Active and inactive are the calls of the source. The calls are words filed in the database; no cut-off is given here.

Legend:
[1] = biological target: Cellular tumor antigen p53 (Homo sapiens) (UniProt P04637); assay: Inhibition of human p53 expressed in Saccharomyces cerevisiae CG379 assessed as effect on cell growth at 1 to 100 uM after 42 hrs
Sequence of Cellular tumor antigen p53 (Homo sapiens) (P04637 whole entry, looked up): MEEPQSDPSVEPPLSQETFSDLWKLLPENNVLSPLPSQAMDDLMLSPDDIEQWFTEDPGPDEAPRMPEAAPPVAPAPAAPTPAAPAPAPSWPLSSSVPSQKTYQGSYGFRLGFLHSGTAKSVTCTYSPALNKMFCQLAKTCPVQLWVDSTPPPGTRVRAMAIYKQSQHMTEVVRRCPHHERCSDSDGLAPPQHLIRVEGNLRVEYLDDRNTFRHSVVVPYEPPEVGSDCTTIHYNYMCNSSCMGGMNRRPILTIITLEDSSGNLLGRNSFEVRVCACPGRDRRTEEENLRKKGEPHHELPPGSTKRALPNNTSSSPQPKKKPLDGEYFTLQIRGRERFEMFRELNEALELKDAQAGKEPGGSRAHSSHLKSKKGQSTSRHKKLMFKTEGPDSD

[2] = biological target: E3 ubiquitin-protein ligase Mdm2 (Homo sapiens) (UniProt Q00987); assay: Inhibition of human MDM2 expressed in Saccharomyces cerevisiae CG379 assessed as effect on cell cycle arrest at 1 to 100 uM after 42 hrs
Sequence of E3 ubiquitin-protein ligase Mdm2 (Homo sapiens) (Q00987 whole entry, looked up): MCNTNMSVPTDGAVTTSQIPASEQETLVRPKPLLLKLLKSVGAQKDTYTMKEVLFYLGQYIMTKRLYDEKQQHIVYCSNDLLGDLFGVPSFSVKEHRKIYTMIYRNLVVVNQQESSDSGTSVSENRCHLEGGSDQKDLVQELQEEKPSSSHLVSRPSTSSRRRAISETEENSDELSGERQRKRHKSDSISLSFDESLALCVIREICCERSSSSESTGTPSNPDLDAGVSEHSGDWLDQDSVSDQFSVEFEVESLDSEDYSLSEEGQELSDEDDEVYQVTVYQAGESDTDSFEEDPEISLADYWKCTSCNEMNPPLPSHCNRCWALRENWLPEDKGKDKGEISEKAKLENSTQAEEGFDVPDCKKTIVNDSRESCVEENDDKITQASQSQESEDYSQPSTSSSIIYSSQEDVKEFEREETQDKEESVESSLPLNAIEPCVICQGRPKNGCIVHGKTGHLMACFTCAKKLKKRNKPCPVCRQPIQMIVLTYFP

[3] = tested on: Cellular tumor antigen p53 (Homo sapiens), P04637 [R280K]; assay: Inhibition of human p53 R280K mutant expressed in Saccharomyces cerevisiae CG379 assessed as effect on cell growth at 10 uM after 31 hrs
[4] = biological target: Cellular tumor antigen p53 (Homo sapiens) (UniProt P04637); assay: Inhibition of human p53 expressed in Saccharomyces cerevisiae CG379 assessed as effect on cell cycle arrest at 1 to 100 uM after 42 hrs

| Compound | inhibition [1] | inhibition [2] | inhibition [3] | inhibition [4] |
| --- | --- | --- | --- | --- |
| COc1c(O)cc2oc3cc(O)c(CC=C(C)C)c(O)c3c(=O)c2c1CC=C(C)C | inactive | inactive | inactive | inactive |
| CC(C)=CCC[C@]1(C)C=Cc2c(O)c3c(c(CC=C(C)C)c2O1)O[C@]12C(=C[C@@H]4C[C@H]1C(C)(C)O[C@@]2(C/C=C(/C)C(=O)O)C4=O)C3=O | inactive | Active | inactive | inactive |
